Active and inactive are the calls of the source.
Key:
[1] = target: Citron Rho-interacting kinase (Homo sapiens, UniProt O14578)
Glycine--tRNA ligase = target: T1, Glycine--tRNA ligase (Homo sapiens, UniProt P41250)
T1 sequence (P41250 whole entry): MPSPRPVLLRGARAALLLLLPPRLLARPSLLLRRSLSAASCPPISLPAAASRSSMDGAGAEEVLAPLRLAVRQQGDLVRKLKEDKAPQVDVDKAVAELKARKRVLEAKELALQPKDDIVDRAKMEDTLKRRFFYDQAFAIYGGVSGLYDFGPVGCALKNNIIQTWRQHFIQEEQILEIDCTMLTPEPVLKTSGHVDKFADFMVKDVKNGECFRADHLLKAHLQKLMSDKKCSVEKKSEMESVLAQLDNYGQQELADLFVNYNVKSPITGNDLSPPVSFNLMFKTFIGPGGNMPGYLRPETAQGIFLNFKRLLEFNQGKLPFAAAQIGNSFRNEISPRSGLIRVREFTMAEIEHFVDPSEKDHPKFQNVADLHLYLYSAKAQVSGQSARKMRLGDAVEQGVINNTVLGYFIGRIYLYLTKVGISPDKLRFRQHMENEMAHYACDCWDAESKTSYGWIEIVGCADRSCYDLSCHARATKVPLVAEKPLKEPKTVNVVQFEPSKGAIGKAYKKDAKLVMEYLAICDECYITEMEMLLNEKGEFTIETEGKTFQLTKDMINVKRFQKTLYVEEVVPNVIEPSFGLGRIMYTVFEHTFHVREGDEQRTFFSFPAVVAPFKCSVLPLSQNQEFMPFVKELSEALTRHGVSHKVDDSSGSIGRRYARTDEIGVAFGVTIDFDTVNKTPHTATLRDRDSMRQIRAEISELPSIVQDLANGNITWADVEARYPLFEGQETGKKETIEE

Ephrin type-A receptor 2 = Ephrin type-A receptor 2 (Homo sapiens, UniProt P29317)
Ephrin type-A receptor 2, sequence (P29317 whole entry): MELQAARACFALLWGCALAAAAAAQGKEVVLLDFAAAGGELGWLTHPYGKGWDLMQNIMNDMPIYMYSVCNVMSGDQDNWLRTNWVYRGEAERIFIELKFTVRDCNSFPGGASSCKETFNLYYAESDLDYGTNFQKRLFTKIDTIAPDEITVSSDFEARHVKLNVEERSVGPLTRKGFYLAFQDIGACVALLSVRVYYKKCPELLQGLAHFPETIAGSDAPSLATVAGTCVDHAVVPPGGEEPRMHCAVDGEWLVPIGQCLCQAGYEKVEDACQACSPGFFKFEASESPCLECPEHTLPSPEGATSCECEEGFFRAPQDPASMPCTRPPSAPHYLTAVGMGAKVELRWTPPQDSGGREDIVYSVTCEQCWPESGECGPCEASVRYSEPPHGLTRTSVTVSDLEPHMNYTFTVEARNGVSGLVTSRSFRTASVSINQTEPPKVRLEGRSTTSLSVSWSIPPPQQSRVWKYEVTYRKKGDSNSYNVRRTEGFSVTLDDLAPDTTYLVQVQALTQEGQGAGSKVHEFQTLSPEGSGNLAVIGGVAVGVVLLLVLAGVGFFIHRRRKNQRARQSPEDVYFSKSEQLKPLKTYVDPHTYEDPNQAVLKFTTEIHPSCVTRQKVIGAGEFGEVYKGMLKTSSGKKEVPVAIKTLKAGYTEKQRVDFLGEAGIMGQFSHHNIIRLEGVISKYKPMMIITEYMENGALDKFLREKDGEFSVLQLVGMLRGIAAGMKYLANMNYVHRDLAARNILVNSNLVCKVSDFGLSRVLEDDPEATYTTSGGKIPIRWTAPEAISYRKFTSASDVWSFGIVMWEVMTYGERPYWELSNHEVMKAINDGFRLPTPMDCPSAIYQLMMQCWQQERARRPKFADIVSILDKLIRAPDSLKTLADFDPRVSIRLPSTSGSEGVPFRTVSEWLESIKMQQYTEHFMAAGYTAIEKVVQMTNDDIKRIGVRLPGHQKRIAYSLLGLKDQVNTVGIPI

[2] = target: Cyclin-dependent kinase 4 (Homo sapiens, UniProt P11802)
Cyclin-dependent kinase 4, sequence (P11802 whole entry): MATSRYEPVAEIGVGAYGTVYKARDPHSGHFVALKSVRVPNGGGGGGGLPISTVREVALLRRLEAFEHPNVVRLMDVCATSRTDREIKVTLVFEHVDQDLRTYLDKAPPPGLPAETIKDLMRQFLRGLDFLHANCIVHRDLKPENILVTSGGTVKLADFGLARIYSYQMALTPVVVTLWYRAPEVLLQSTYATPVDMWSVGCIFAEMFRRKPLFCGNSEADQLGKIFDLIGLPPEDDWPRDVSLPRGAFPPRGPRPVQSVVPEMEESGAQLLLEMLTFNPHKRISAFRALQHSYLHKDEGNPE

[3] = target: Serine/threonine-protein kinase pim-1 (Homo sapiens, UniProt P11309)
ADP/ATP translocase 3 = target: T2, ADP/ATP translocase 3 (Homo sapiens, UniProt P12236)
T2 sequence (P12236 whole entry): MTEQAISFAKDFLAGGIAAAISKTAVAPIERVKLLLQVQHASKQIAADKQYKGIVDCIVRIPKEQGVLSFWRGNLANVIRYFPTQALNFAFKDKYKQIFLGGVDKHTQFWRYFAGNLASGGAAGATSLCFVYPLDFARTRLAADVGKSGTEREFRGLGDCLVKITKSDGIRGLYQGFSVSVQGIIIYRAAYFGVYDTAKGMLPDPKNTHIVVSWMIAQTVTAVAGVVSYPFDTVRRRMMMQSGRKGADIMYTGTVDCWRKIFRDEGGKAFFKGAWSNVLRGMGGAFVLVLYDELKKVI

[4] = target: Rho-associated protein kinase 2 (Homo sapiens, UniProt O75116)
[5] = target: Serine/threonine-protein kinase PAK 2 (Homo sapiens, UniProt Q13177)
Serine/threonine-protein kinase PAK 2, sequence (Q13177 whole entry): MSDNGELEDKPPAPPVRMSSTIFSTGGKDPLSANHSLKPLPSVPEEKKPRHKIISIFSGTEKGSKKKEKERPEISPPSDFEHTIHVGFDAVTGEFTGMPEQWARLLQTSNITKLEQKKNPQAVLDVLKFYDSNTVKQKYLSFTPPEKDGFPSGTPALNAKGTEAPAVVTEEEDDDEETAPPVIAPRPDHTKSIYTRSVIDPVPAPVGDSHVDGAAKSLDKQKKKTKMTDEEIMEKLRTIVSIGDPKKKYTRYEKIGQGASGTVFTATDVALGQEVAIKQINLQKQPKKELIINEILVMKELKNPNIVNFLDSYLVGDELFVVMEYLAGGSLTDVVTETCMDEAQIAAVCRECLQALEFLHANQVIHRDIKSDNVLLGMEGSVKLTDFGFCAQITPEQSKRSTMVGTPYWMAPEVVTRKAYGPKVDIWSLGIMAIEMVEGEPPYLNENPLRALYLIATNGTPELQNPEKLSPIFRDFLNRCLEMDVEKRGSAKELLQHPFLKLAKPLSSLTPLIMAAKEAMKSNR

[6] = target: T3, Serine/threonine-protein kinase ICK (Homo sapiens, UniProt Q9UPZ9)
T3 sequence (Q9UPZ9 whole entry): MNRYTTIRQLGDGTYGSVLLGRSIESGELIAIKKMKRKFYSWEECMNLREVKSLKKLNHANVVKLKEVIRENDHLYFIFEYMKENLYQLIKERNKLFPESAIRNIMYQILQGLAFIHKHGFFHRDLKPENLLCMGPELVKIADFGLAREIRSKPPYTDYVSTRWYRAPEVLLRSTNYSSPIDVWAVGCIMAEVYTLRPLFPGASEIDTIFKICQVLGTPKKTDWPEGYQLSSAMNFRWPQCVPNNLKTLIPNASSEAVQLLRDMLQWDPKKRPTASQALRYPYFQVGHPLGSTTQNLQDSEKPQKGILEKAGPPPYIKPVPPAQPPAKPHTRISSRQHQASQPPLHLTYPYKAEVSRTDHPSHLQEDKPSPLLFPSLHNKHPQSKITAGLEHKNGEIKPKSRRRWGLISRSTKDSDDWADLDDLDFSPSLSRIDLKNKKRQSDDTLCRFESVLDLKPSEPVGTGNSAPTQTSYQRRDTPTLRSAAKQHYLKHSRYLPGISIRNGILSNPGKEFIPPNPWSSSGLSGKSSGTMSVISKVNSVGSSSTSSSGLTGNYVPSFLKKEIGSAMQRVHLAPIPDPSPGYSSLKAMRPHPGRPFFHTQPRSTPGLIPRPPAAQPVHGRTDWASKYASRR

[7] = target: Adenylate kinase 2, mitochondrial (Homo sapiens, UniProt P54819)
Pyridoxal kinase = target: T4, Pyridoxal kinase (Homo sapiens, UniProt O00764)
T4 sequence (O00764 whole entry): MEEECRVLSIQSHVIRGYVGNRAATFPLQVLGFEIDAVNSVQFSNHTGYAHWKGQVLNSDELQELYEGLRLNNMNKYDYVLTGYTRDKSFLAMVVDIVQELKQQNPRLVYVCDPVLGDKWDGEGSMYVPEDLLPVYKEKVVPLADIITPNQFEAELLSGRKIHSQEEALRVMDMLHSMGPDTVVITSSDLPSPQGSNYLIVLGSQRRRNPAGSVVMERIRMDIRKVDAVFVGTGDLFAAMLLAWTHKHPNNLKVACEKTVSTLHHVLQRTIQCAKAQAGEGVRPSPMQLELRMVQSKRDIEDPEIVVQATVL

[8] = target: Tyrosine-protein kinase ABL1 (Homo sapiens, UniProt P00519)
Tyrosine-protein kinase ABL1, sequence (P00519 whole entry): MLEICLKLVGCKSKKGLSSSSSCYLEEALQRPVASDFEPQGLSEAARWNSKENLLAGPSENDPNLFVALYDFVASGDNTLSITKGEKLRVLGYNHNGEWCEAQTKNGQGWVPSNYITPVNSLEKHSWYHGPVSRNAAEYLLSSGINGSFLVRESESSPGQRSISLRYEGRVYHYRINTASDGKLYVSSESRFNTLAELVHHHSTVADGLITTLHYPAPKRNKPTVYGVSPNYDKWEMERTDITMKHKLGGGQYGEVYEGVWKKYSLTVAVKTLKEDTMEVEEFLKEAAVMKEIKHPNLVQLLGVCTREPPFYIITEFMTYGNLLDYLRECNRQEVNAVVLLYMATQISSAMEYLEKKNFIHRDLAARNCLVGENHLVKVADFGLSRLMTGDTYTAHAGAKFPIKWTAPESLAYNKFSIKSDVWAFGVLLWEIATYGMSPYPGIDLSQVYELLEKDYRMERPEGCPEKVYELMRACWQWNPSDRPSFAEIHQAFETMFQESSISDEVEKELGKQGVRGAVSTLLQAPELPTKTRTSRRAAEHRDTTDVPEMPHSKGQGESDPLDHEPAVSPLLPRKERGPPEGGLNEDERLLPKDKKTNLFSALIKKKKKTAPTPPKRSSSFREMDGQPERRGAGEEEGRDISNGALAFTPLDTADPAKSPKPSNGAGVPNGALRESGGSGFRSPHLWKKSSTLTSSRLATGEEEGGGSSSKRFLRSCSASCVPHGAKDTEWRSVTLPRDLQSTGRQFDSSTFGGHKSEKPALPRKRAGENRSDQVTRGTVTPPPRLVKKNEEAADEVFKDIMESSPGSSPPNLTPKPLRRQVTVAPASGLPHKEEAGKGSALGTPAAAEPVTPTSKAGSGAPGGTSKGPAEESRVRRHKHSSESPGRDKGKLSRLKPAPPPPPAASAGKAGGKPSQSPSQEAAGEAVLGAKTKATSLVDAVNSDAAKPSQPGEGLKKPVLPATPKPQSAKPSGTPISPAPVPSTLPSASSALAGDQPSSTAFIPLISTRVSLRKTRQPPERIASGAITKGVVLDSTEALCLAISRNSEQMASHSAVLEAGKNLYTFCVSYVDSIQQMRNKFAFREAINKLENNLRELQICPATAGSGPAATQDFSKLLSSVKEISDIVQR

[9] = target: Myosin light chain kinase, smooth muscle (Homo sapiens, UniProt Q15746)
Myosin light chain kinase, smooth muscle, sequence (Q15746 whole entry): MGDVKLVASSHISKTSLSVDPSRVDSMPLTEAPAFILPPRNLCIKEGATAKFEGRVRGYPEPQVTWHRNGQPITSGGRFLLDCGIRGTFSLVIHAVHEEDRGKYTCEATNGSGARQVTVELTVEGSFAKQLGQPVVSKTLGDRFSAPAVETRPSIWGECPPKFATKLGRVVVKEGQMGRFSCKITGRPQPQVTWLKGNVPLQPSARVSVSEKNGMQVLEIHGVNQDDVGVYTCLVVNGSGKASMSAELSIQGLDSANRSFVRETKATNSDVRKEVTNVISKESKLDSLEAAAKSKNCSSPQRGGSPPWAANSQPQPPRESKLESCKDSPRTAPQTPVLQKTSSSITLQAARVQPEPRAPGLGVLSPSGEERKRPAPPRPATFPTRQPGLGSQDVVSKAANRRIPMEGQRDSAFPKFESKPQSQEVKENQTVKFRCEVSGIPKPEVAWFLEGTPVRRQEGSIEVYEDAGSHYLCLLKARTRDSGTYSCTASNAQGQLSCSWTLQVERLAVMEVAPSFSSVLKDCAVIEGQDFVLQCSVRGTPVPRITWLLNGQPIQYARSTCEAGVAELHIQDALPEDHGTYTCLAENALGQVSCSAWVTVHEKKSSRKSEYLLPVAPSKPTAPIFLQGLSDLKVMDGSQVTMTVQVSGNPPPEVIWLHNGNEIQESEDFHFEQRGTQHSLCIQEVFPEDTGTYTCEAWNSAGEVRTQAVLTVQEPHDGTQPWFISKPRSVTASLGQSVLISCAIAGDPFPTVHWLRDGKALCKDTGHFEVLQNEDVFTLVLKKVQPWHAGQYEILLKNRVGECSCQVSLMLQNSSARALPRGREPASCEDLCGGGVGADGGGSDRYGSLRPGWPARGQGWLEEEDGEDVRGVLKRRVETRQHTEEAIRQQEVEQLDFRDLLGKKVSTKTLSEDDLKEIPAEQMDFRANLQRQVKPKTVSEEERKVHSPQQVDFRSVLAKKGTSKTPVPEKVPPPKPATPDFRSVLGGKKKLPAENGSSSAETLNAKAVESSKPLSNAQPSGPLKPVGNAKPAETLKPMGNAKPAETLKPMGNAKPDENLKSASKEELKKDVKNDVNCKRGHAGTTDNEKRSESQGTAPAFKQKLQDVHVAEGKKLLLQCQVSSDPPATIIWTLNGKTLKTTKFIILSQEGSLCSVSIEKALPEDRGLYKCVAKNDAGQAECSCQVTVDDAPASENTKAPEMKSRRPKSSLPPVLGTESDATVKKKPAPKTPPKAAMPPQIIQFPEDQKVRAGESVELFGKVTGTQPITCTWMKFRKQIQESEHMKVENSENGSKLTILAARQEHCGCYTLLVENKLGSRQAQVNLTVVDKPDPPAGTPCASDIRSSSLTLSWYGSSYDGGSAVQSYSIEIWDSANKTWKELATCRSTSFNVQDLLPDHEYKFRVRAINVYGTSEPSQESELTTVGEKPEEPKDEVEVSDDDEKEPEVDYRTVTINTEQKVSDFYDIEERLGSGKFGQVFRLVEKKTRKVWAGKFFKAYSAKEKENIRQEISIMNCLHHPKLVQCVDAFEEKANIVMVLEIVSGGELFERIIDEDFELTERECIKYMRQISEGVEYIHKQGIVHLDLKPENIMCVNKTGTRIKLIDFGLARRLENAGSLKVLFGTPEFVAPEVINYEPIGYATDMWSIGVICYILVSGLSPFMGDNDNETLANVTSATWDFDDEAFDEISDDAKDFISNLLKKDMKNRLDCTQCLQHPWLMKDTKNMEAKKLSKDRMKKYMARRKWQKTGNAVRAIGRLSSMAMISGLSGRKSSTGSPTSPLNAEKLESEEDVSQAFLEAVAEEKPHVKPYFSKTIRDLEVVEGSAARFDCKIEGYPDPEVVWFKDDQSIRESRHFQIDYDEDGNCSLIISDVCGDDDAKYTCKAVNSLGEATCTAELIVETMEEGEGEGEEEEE
Also: in the data inactive means no Kd found up to 30 µM.

Compound | Kd [1] | Kd (Glycine--tRNA ligase) | Kd (Ephrin type-A receptor 2) | Kd [2] | Kd [3] | Kd (ADP/ATP translocase 3) | Kd [4] | Kd [5] | Kd [6] | Kd [7] | Kd (Pyridoxal kinase) | Kd [8] | Kd [9]
Cn1cc(-c2cnc3ccc4ccc(CS(=O)(=O)NCc5ccccn5)cc4c(=O)c3c2)cn1 [MK-8033] | > 30 µM (inactive) | > 30 µM (inactive) | > 30 µM (inactive) | > 30 µM (inactive) | > 30 µM (inactive) | > 30 µM (inactive) | > 30 µM (inactive) | > 30 µM (inactive) | > 30 µM (inactive) | > 30 µM (inactive) | > 30 µM (inactive) | > 30 µM (inactive) | > 30 µM (inactive)
CCCCCCCCCCCCCCCCCCOP(=O)([O-])OC1CC[N+](C)(C)CC1 [PERIFOSINE] | > 30 µM (inactive) | > 30 µM (inactive) | > 30 µM (inactive) | > 30 µM (inactive) | > 30 µM (inactive) | > 30 µM (inactive) | > 30 µM (inactive) | > 30 µM (inactive) | > 30 µM (inactive) | > 30 µM (inactive) | > 30 µM (inactive) | > 30 µM (inactive) | > 30 µM (inactive)
Cc1nc(Nc2n[nH]c3c2CN(C(=O)N[C@H](CN(C)C)c2ccccc2)C3(C)C)c2sccc2n1 [PF-03758309] | > 30 µM (inactive) | > 30 µM (inactive) | > 30 µM (inactive) | > 30 µM (inactive) | > 30 µM (inactive) | > 30 µM (inactive) | > 30 µM (inactive) | > 30 µM (inactive) | 0.237 µM | > 30 µM (inactive) | > 30 µM (inactive) | > 30 µM (inactive) | > 30 µM (inactive)
Cc1cnc(NC(=O)Nc2cc(Br)c(C)cc2OC[C@@H]2CNCCO2)cn1 [RABUSERTIB] | > 30 µM (inactive) | > 30 µM (inactive) | > 30 µM (inactive) | > 30 µM (inactive) | > 30 µM (inactive) | > 30 µM (inactive) | > 30 µM (inactive) | > 30 µM (inactive) | > 30 µM (inactive) | > 30 µM (inactive) | > 30 µM (inactive) | > 30 µM (inactive) | > 30 µM (inactive)
CO[C@H]1C[C@@H]2CC[C@@H](C)[C@@](O)(O2)C(=O)C(=O)N2CCCC[C@H]2C(=O)O[C@H]([C@H](C)C[C@@H]2CC[C@@H](OP(C)(C)=O)[C@H](OC)C2)CC(=O)[C@H](C)/C=C(\C)[C@@H](O)[C@@H](OC)C(=O)[C@H](C)C[C@H](C)/C=C/C=C/C=C/1C [RIDAFOROLIMUS] | > 30 µM (inactive) | > 30 µM (inactive) | > 30 µM (inactive) | > 30 µM (inactive) | > 30 µM (inactive) | > 30 µM (inactive) | > 30 µM (inactive) | > 30 µM (inactive) | > 30 µM (inactive) | > 30 µM (inactive) | > 30 µM (inactive) | > 30 µM (inactive) | > 30 µM (inactive)
N#CC1(c2ccc(NC(=O)c3cccnc3NCc3ccncc3)cc2)CCCC1 [RIVOCERANIB] | > 30 µM (inactive) | > 30 µM (inactive) | > 30 µM (inactive) | > 30 µM (inactive) | > 30 µM (inactive) | > 30 µM (inactive) | > 30 µM (inactive) | > 30 µM (inactive) | > 30 µM (inactive) | > 30 µM (inactive) | > 30 µM (inactive) | > 30 µM (inactive) | > 30 µM (inactive)
O=c1[nH]ccc2cc(OC3CCNCC3)ccc12 [SAR-407899 FREE BASE] | > 30 µM (inactive) | > 30 µM (inactive) | > 30 µM (inactive) | > 30 µM (inactive) | > 30 µM (inactive) | > 30 µM (inactive) | 0.016 µM (active) | > 30 µM (inactive) | > 30 µM (inactive) | > 30 µM (inactive) | > 30 µM (inactive) | > 30 µM (inactive) | > 30 µM (inactive)

Source: ChEMBL document CHEMBL3991601, “The target landscape of clinical kinase drugs” (Science, 2017)
